Measured values published in US12410153B2, “Compounds, compositions and methods” (Avalo Therapeutics, Inc., priority 2014, dated 2025).
Read-outs that look alike come from different tables or passages of the source.

Test: Repeated once-daily oral dosing with food (Days 1-7) in healthy subjects, PK and PD
Type: in vivo, human
Details: for Cmax: read-out: Cmax, Mean (SD); for AUC(0-inf): read-out: AUCinf, Mean (SD)
Protocol: A randomized, double-blind, placebo-controlled, parallel-dose group in-patient study is conducted to investigate the pharmacodynamic (PD) effects of crystalline Form II of Compound (I) in healthy subjects.
The study is designed as a three-part, sequential study. The sequential nature of the study ensures that a range of doses are investigated first in a young, healthy population (Part 1) before proceeding to higher doses in the healthy population and the comparator populations (intermediate age and elderly) (Parts 2 and 3). For the purposes of this study, “young” refers to a subject who is 18 to 45 years of age, “intermediate age” refers to a subject who is 46 to 64 years of age, and “elderly” refers to a subject who is 65 years of age or older.
After a screening period of up to 21 days (Days −23 to −3), 16 healthy, young male and female subjects are randomly assigned to a dose group as shown in Table 9.
Each parallel dose group is balanced for gender (approximately equal number of males and females). The randomized subjects are domiciled from Day −1 through Day 8. On Day −1, the subjects receive placebo tablets in the fed state and undergo ambulatory blood pressure monitoring (ABPM) and safety assessments to establish time-matched baselines. On Days 1-7, the subjects receive the study drug in the fed state and undergo safety, pharmacokinetic (PK) and pharmacodynamics (PD) assessments. On Days 8-11, follow-up PK and safety assessments are performed.
Safety assessments include Clinician-Administered Dissociative States Scale (CADSS), Columbia-Suicide Severity Rating Scale (C-SSRS), concomitant medication, adverse event (AE) and vital sign assessments. In PK assessments, blood samples are taken and analyzed to determine PK parameters such as Cmax, Tmax, AUC0-24, and t1/2. PD assessments include ABPM, plasma brain-derived neurotrophic factor (BDNF) measurements, and Profile of Mood States (POMS) assessments.
After a screening period of up to 21 days (Days −23 to −3), 16 subjects (8 healthy, young male and female subjects, and 8 healthy, intermediate age male and female subjects) are randomly assigned to a dose group as shown in Table 10.
After a screening period of up to 21 days (Days −23 to −3), 16 subjects (8 healthy, young male and female subjects, and 8 healthy, elderly male and female subjects) are randomly assigned to a dose group as shown in Table 11.

[1] = both sexes, human, plasma, oral, 12 mg, young subjects, 12 mg, Day 7
[2] = both sexes, human, plasma, oral, 16 mg, young subjects, 16 mg, Day 7
[3] = both sexes, human, plasma, oral, 20 mg, young subjects, 20 mg, Day 7

`Cc1ccc(COC(=O)N2CC[C@H](CNc3ncccn3)[C@H](F)C2)cc1` [Form II, 4-methylbenzyl (3S, 4R)-3-fluoro-4-[(pyrimidin-2-ylamino)methyl] piperidine-1-carboxylate] gave an AUC(0-t) (both sexes, human, plasma, oral, 12 mg, young subjects, 12 mg, Day 1, read-out: AUC0-24, Mean (SD)) of 1.86 µg·h/mL, an AUC(0-t) (both sexes, human, plasma, oral, 12 mg, young subjects, 12 mg, Day 1, read-out: AUClast, Mean (SD)) of 1.84 µg·h/mL and a Cmax (both sexes, human, plasma, oral, 12 mg, young subjects, 12 mg, Day 1) of 0.239 µg/mL. For the same molecule, the Vd/F (both sexes, human, plasma, oral, 12 mg, young subjects, 12 mg, Day 1, read-out: Vz/F, Mean (SD)) was 197 L, the Tmax (both sexes, human, plasma, oral, 12 mg, young subjects, 12 mg, Day 1, read-out: tmax, Mean (SD)) was 1.77 h and the Tmax (both sexes, human, plasma, oral, 12 mg, young subjects, 12 mg, Day 1, read-out: tmax, Median) was 1.5 h. It also gave an AUC(0-t) (both sexes, human, plasma, oral, 12 mg, young subjects, 12 mg, Day 7, read-out: AUC0-24, Mean (SD)) of 3.06 µg·h/mL, an AUC(0-inf) [1] of 5.93 µg·h/mL and an AUC(0-t) (both sexes, human, plasma, oral, 12 mg, young subjects, 12 mg, Day 7, read-out: AUClast, Mean (SD)) of 5.61 µg·h/mL. For the same molecule, the Cmax [1] was 0.274 µg/mL, the Vd/F (both sexes, human, plasma, oral, 12 mg, young subjects, 12 mg, Day 7, read-out: Vss/F, Mean (SD)) was 115 L and the half-life (both sexes, human, plasma, oral, 12 mg, young subjects, 12 mg, Day 7, read-out: t1/2, Mean (SD) (converted)) was 20.5 h. The Tmax (both sexes, human, plasma, oral, 12 mg, young subjects, 12 mg, Day 7, read-out: tmax, Mean (SD)) was 2.42 h, the Tmax (both sexes, human, plasma, oral, 12 mg, young subjects, 12 mg, Day 7, read-out: tmax, Median) was 2.5 h and the AUC(0-t) (both sexes, human, plasma, oral, 16 mg, young subjects, 16 mg, Day 1, read-out: AUC0-24, Mean (SD)) was 2.66 µg·h/mL. The AUC(0-t) (both sexes, human, plasma, oral, 16 mg, young subjects, 16 mg, Day 1, read-out: AUClast, Mean (SD)) was 2.63 µg·h/mL, the Cmax (both sexes, human, plasma, oral, 16 mg, young subjects, 16 mg, Day 1) was 0.306 µg/mL and the Vd/F (both sexes, human, plasma, oral, 16 mg, young subjects, 16 mg, Day 1, read-out: Vz/F, Mean (SD)) was 175 L. For the same molecule, the Tmax (both sexes, human, plasma, oral, 16 mg, young subjects, 16 mg, Day 1, read-out: tmax, Mean (SD)) was 2.58 h, the Tmax (both sexes, human, plasma, oral, 16 mg, young subjects, 16 mg, Day 1, read-out: tmax, Median) was 3 h and the AUC(0-t) (both sexes, human, plasma, oral, 16 mg, young subjects, 16 mg, Day 7, read-out: AUC0-24, Mean (SD)) was 4.3 µg·h/mL. For the same molecule, the AUC(0-inf) [2] was 8.02 µg·h/mL, the AUC(0-t) (both sexes, human, plasma, oral, 16 mg, young subjects, 16 mg, Day 7, read-out: AUClast, Mean (SD)) was 7.45 µg·h/mL and the Cmax [2] was 0.413 µg/mL. It also gave a half-life (both sexes, human, plasma, oral, 16 mg, young subjects, 16 mg, Day 7, read-out: t1/2, Mean (SD) (converted)) of 20 h, a Tmax (both sexes, human, plasma, oral, 16 mg, young subjects, 16 mg, Day 7, read-out: tmax, Mean (SD)) of 1.75 h and a Tmax (both sexes, human, plasma, oral, 16 mg, young subjects, 16 mg, Day 7, read-out: tmax, Median) of 1.75 h. The AUC(0-t) (both sexes, human, plasma, oral, 20 mg, young subjects, 20 mg, Day 1, read-out: AUC0-24, Mean (SD)) was 3.52 µg·h/mL, the AUC(0-t) (both sexes, human, plasma, oral, 20 mg, young subjects, 20 mg, Day 1, read-out: AUClast, Mean (SD)) was 3.48 µg·h/mL and the Cmax (both sexes, human, plasma, oral, 20 mg, young subjects, 20 mg, Day 1) was 0.384 µg/mL. It also gave a Vd/F (both sexes, human, plasma, oral, 20 mg, young subjects, 20 mg, Day 1, read-out: Vz/F, Mean (SD)) of 148 L, a Tmax (both sexes, human, plasma, oral, 20 mg, young subjects, 20 mg, Day 1, read-out: tmax, Mean (SD)) of 2.17 h and a Tmax (both sexes, human, plasma, oral, 20 mg, young subjects, 20 mg, Day 1, read-out: tmax, Median) of 2.25 h. It also gave an AUC(0-t) (both sexes, human, plasma, oral, 20 mg, young subjects, 20 mg, Day 7, read-out: AUC0-24, Mean (SD)) of 6.04 µg·h/mL, an AUC(0-inf) [3] of 10.5 µg·h/mL and an AUC(0-t) (both sexes, human, plasma, oral, 20 mg, young subjects, 20 mg, Day 7, read-out: AUClast, Mean (SD)) of 10.1 µg·h/mL. It also gave a Cmax [3] of 0.534 µg/mL, a half-life (both sexes, human, plasma, oral, 20 mg, young subjects, 20 mg, Day 7, read-out: t1/2, Mean (SD) (converted)) of 18.8 h and a Tmax (both sexes, human, plasma, oral, 20 mg, young subjects, 20 mg, Day 7, read-out: tmax, Mean (SD)) of 1.67 h. It also gave a Tmax (both sexes, human, plasma, oral, 20 mg, young subjects, 20 mg, Day 7, read-out: tmax, Median) of 1.5 h, a Tmax (both sexes, human, plasma, oral, Day 1, read-out: median Tmax values, range) of 2 to 3 h and a Vd (both sexes, human, plasma, oral, Day 7, read-out: average apparent volume of distribution, range) of 83 to 116 L. The half-life (both sexes, human, plasma, oral, Day 7, read-out: average t½, range) was 17 to 25 h, the half-life (both sexes, human, plasma, oral, Day 7, read-out: average t½, range across genders) was 21 to 24 h and the Tmax (both sexes, human, plasma, oral, Day 7, read-out: median Tmax values, range) was 1.5 to 3 h. For the same molecule, the “Day 7/Day 1 Cmax Ratio, Mean (SD)” value (elderly, 12 mg) was 1.53 (0.13), the “Observed Accumulation Index, Mean (SD)” value (elderly, 12 mg) was 2.12 (0.22) and the “Steady State Accumulation Index, Mean (SD)” value (elderly, 12 mg) was 1.30 (0.11). For the same molecule, the “CL/F, Mean (SD)” value (elderly, 12 mg, Day 1) was 5.87 (1.32) L/h.
